Results published in patent US11617850B2, “Delivery systems and methods for electric plasma synthesis of nitric oxide” (The General Hospital Corporation, priority 2016, dated 2023).

How the values were obtained:
mice (C57BL6 male WT) = test: Mice breathing air or electrically generated 50 ppm NO in air for 28 days; format: in vivo; conditions: 50 ppm NO in air
Excerpt: A second chamber 802 was supplied with 50 ppm of NO gas in air, generated by a spark plug generator using platinum-iridium electrodes and subsequently scavenged using 75 g Ca(OH). A plurality of mice (C57BL6 male WT) breathed the NO laden air for the same 28 day period. During the 28 day test, humidity, CO2, O2, NO, and NO2 were monitored intermittently.
Throughout the 28 day test, the mice were weighed in weekly intervals to track a change in the body weight of the mice throughout the 28 day test. […] Once the 28 day test was complete, lung specimens from the mice were analyzed using a high resolution magnetic sector field inductively coupled mass spectrometer (Thermo Fisher, Bremen, Germany).

[1] = test system: awake sheep with acute pulmonary hypertension, due to U46619 infusion; test: Inhaled electrically generated NO in awake sheep with acute pulmonary hypertension due to U46619 infusion; format: in vivo
Excerpt: Animal studies were approved by the Institutional Animal Care and Use Committee of Massachusetts General Hospital (Boston, Mass.). The NO generator 102 of the NO generation system 100 was coupled to a tracheostomy tube in a spontaneously breathing awake 35 kg sheep.
To induce pulmonary hypertension, a potent pulmonary vasoconstrictor U46619 (Cayman Chemical, Ann Arbor, Mich.), the analog of the endoperoxide prostaglandin H2, was infused intravenously to increase pulmonary arterial pressure (PAP) to 30 mmHg. The pulmonary arterial pressure and PAP was continuously monitored using a Gould 6600 amplifier system (Gould Electronics, Inc., Eastlake, Ohio).
In turn, the electric plasma discharge of the electrodes supplied NO gas to the spontaneously breathing awake sheep during those 0.8 seconds.
Turning to FIGS. 11 and 12, the above-described operation of the NO system 200 (i.e., triggering the NO generator 102 for approximately 0.8 second during early inspiration, for example, 20 milliseconds after commencement of inspiration) was implemented during a NO exposure time 700. Prior to and following the NO exposure time 700, a baseline was generated. The NO generator 102 was configured to output approximately 20 ppm of NO for three different runs (FIG. 11) and was configured to output 5 ppm of NO for another run (FIG. 12).
In addition to PAP, the arterial oxygen saturation was also measured as a function of time in the awake sheep. […] Lastly, the relative arterial oxygen saturation was calculated as a function of time for all four periods of NO inhalation.

[N]=O [NO, nitric oxide]
lung histology (H&E staining of larynx, trachea, main bronchus, lung tissues) (mice (C57BL6 male WT)): no evidence of lung inflammation or pathology
iridium and platinum in lung specimens versus control mice (ICP mass spectrometry) (mice (C57BL6 male WT); platinum-iridium electrodes, Ca(OH) scavenger): no detectable difference
body weight gain versus mice breathing air (mice (C57BL6 male WT); weighed weekly): did not differ
arterial oxygen saturation (SaO2) during the NO exposure time ([1]; 5 ppm NO inhaled): generally constant
effect on pulmonary artery pressure (PAP) during the NO exposure time ([1]; 5 ppm NO inhaled, one run): does not show a measurable effect
arterial oxygen saturation (SaO2) during the NO exposure time ([1]; 20 ppm NO inhaled): increases
improvement of relative arterial oxygen saturation during the NO exposure time ([1]; 20 ppm NO inhaled, three trials): approximately 10%
